Values quoted from earlier work as cited in patent publication US20260258132A1, “TREATMENT OF LUNG CANCER WITH ANTI-PD-1 AND CHEMOTHERAPY” (BeOne Medicines I GmbH, priority 2023, published 2026).

B1: adebrelimab plus chemotherapy: adebrelimab plus chemotherapy, prior study compared by RMST of OS (antibody, chains of the INN, looked up, V domains shown)
VH: QVQLVQSGAEVKKPGASVKVSCKASGYTFTSYWMHWVRQAPGQGLEWMGRIGPNSGFTSYNEKFKNRVTMTRDTSTSTVYMELSSLRSEDTAVYYCARGGSSYDYFDYWGQGTTVTVSS
VL: DIVLTQSPASLAVSPGQRATITCRASESVSIHGTHLMHWYQQKPGQPPKLLIYAASNLESGVPARFSGSGSGTDFTLTINPVEAEDTANYYCQQSFEDPLTFGQGTKLEIK
modifications: plus chemotherapy
notes: adebrelimab plus chemotherapy, prior study compared by RMST of OS

Tested on: ES-SCLC
Conditions: cited from earlier work; for RMST analysis: difference in OS in prior studies: versus placebo plus chemotherapy

Molecule	median OS in the previous study (first-line treatment for ES-SCLC)	OS HR in the previous study (pembrolizumab arm versus placebo arm, 95% CI 0.64-0.98)	RMST analysis: difference in OS in prior studies
pembrolizumab plus chemotherapy: pembrolizumab (humanized IgG4 anti-PD-1 antibody) plus chemotherapy, first-line ES-SCLC, previous study	10.8 months	0.80	1.2 month
B1	–	–	2.3 month
